Assay results as given in publication PMC5787466, “Accelerated bottom-up drug design platform enables the discovery of novel stearoyl-CoA desaturase 1 inhibitors for cancer therapy” (Oncotarget, 2017).

Assays:
468 known kinases = test: Kinome scan (binding)
From the text: Induction of the unfolded protein response (UPR) is a known biological response to SCD1 inhibition in tumor cells. […] The addition of exogenous OA was sufficient to reverse the activation of ATF6 (Figure 4b). Moreover, exogenous OA inhibited SSI-(1-4) mediated upregulation of the UPR markers BiP (heat shock 70 kDa protein) and CHOP (damage inducible transcript 3) protein levels in both A498 and ACHN cells (Figure 4c). Collectively these findings confirm that SSI-(1-4) reliably recapitulates the biological responses observed in tumor cells treated with known SCD1 inhibitors. […] Thus, SSI-4 is not predicted to have any major off-target effects through kinase inhibition (Supplementary Figures 7 and 8). […]
of PLS factors. T-value filter (t-value < 2.0) was used to eliminate independent variables overly sensitive to incremental changes from the training set. For structural components, both atom-based and pharmacophore features based were examined.
The regression with m PLS factors, fitted to activities is given as: […]
i =1 , where m = number of PLS factors, b is regression coefficient, vector y represents activity values in the training set. […]
A final Z-filtering mechanism was applied to reduce the dataset to a few select compounds for synthesis and experimental screening by using combined normalized scoring. The final Z-score for each compound was determined as: […]

[1] = tested on: ACHN ccRCC pulmonary metastasis; test: ACHN pulmonary metastasis model; assay type: in vivo, athymic nude mice; settings: 180 mg/kg in chow, 28 days
Method: SCD1 expression correlates with poor cancer patient outcomes as evidenced by decreased survival in multiple cancers including gastric, lung, ovarian and renal cell carcinoma (Figure 5a-5b, Supplementary Figure 9a-9b). […] Our findings in thyroid carcinoma similarly present discordancy between tumor response to SCD1 inhibitors and SCD1 expression. SSI-4 was tested in vivo for anti-tumorigenic activity.
Figure 5 SSI-4 attenuates tumor progression Kaplan Meier survival analysis of indicated subtypes of (a) gastric and (b) lung cancer patients sorted into high versus low SCD1 mRNA expression, for multiple disease subtypes. Patient risk assessment at indicated mean follow-up is shown. […] (h) Tumor burden of ACHN pulmonary metastasis in response to SSI-4 treatment (180mg/kg) measured by ex vivo bioluminescent flux, given in photons/second (n=5 per group). ([…]) Tumor burden of ACHN pulmonary metastasis as determined by H&E staining of lungs from (h).
ACHN cells were infected with pSIN Luc Ub Emerald GFP lentivirus construct, a kind gift from Dr. Yasuhiro Ikeda (Mayo Clinic). […] Lesion width was calculated as the mean of all nodules measured (7-12 per mouse), identified by H&E staining.
A498 cells were injected subcutaneously in the flank of athymic nude mice at 1x10^6/mouse. […] Tumor burden was measured using calipers. […]

SMILES: CNC(=O)c1ccnc(NC(=O)N2CCC(Oc3ccccc3Cl)CC2)c1 [SSI-4]
- number of 403 non-mutant kinases bound (468 known kinases; 10 nM): none
- number of 403 non-mutant kinases bound (468 known kinases; 100 nM, the kinase bound is CDKL2): 1
- pulmonary metastasis formation of ACHN ccRCC [1]: reduced
